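At the GI50, growth is halved. TGI marks complete inhibition of growth.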
Tests used:
Test in all cases: NCI tumour cell line growth inhibition, 384-well format
HCT-116 colon = system: HCT-116 colon
OVCAR-8 ovarian = system: OVCAR-8 ovarian
MALME-3M melanoma = system: MALME-3M melanoma
RPMI-8226 leukemia = system: RPMI-8226 leukemia
MOLT-4 leukemia = system: MOLT-4 leukemia
LOX IMVI melanoma = system: LOX IMVI melanoma
SK-OV-3 ovarian = system: SK-OV-3 ovarian
SW-620 colon = system: SW-620 colon
HL-60(TB) leukemia = system: HL-60(TB) leukemia
CAKI-1 renal = system: CAKI-1 renal
DU-145 prostate = system: DU-145 prostate
K-562 leukemia = system: K-562 leukemia
CCRF-CEM leukemia = system: CCRF-CEM leukemia
MDA-MB-468 breast = system: MDA-MB-468 breast
MDA-MB-435 melanoma = system: MDA-MB-435 melanoma
UACC-62 melanoma = system: UACC-62 melanoma
COLO 205 colon = system: COLO 205 colon
T-47D breast = system: T-47D breast
HT29 colon = system: HT29 colon
UO-31 renal = system: UO-31 renal
NCI-H460 NSCLC = system: NCI-H460 NSCLC
SN12C renal = system: SN12C renal
M14 melanoma = system: M14 melanoma
A498 renal = system: A498 renal
BT-549 breast = system: BT-549 breast
NCI-H23 lung = system: NCI-H23 lung
ACHN renal = system: ACHN renal
SF-295 CNS = system: SF-295 CNS
UACC-257 melanoma = system: UACC-257 melanoma
OVCAR-4 ovarian = system: OVCAR-4 ovarian
IGROV1 ovarian = system: IGROV1 ovarian
SF-539 CNS = system: SF-539 CNS
NCI-H522 lung = system: NCI-H522 lung
EKVX NSCLC = system: EKVX NSCLC
SF-268 CNS = system: SF-268 CNS
PC-3 prostate = system: PC-3 prostate
SK-MEL-28 melanoma = system: SK-MEL-28 melanoma
NCI-H322M lung = system: NCI-H322M lung
U251 glioblastoma = system: U251 glioblastoma
HCC-2998 colon = system: HCC-2998 colon
OVCAR-5 ovarian = system: OVCAR-5 ovarian
A549 NSCLC = system: A549 NSCLC
MDA-MB-231 breast = system: MDA-MB-231 breast
OVCAR-3 ovarian = system: OVCAR-3 ovarian
NCI/ADR-RES ovarian = system: NCI/ADR-RES ovarian
SR leukemia = system: SR leukemia
HOP-62 NSCLC = system: HOP-62 NSCLC
HOP-92 NSCLC = system: HOP-92 NSCLC
KM12 colon = system: KM12 colon
SNB-19 CNS = system: SNB-19 CNS
SK-MEL-5 melanoma = system: SK-MEL-5 melanoma
HCT-15 colon = system: HCT-15 colon
HS 578T breast = system: HS 578T breast
NCI-H226 lung = system: NCI-H226 lung
TK-10 renal = system: TK-10 renal
786-0 renal = system: 786-0 renal
MCF7 breast = system: MCF7 breast

Structure (SMILES): CN(C)/N=N/c1nc[nH]c1C(N)=O
- GI50 (HCT-116 colon): 66.3 µM
- GI50 (OVCAR-8 ovarian): 69.9 µM
- GI50 (MALME-3M melanoma): 79.5 µM
- GI50 (RPMI-8226 leukemia): 18.3 µM
- GI50 (MOLT-4 leukemia): 6.9 µM
- TGI (MOLT-4 leukemia): 21.7 µM
- GI50 (LOX IMVI melanoma): 29.2 µM
- GI50 (SK-OV-3 ovarian): 95.3 µM
- GI50 (SW-620 colon): 97.4 µM
- GI50 (HL-60(TB) leukemia): 6.42 µM
- GI50 (CAKI-1 renal): 34.7 µM
- GI50 (DU-145 prostate): 83.8 µM
- GI50 (K-562 leukemia): 44.6 µM
- GI50 (CCRF-CEM leukemia): 45.5 µM
- GI50 (MDA-MB-468 breast): 30.4 µM

Structure (SMILES): Cc1nc(Nc2ncc(C(=O)Nc3c(C)cccc3Cl)s2)cc(N2CCN(CCO)CC2)n1
- GI50 (MDA-MB-435 melanoma): 9.25 µM
- TGI (MDA-MB-435 melanoma): 20.8 µM
- GI50 (UACC-62 melanoma): 2.05 µM
- TGI (UACC-62 melanoma): 10.1 µM
- GI50 (HCT-116 colon): 4.83 µM
- TGI (HCT-116 colon): 17.4 µM
- GI50 (COLO 205 colon): 3.8 µM
- TGI (COLO 205 colon): 10.7 µM
- GI50 (T-47D breast): 0.176 µM
- TGI (T-47D breast): 15.1 µM
- GI50 (HT29 colon): 2.02 µM
- TGI (HT29 colon): 13.3 µM
- GI50 (UO-31 renal): 0.057 µM
- TGI (UO-31 renal): 0.84 µM
- GI50 (NCI-H460 NSCLC): 9.52 µM
- TGI (NCI-H460 NSCLC): 21.4 µM
- GI50 (SN12C renal): 0.0139 µM
- TGI (SN12C renal): 3.39 µM
- GI50 (M14 melanoma): 2.86 µM
- TGI (M14 melanoma): 8.23 µM
- GI50 (A498 renal): 0.251 µM
- TGI (A498 renal): 2.75 µM
- GI50 (BT-549 breast): 0.0327 µM
- TGI (BT-549 breast): 1.26 µM
- GI50 (NCI-H23 lung): 2.59 µM
- TGI (NCI-H23 lung): 10.7 µM
- GI50 (ACHN renal): 0.0172 µM
- TGI (ACHN renal): 0.234 µM
- GI50 (OVCAR-8 ovarian): 0.0643 µM
- TGI (OVCAR-8 ovarian): 2.97 µM
- GI50 (SF-295 CNS): 2.59 µM
- TGI (SF-295 CNS): 18.9 µM
- GI50 (UACC-257 melanoma): 5.53 µM
- TGI (UACC-257 melanoma): 18.2 µM
- GI50 (OVCAR-4 ovarian): 0.0588 µM
- TGI (OVCAR-4 ovarian): 0.85 µM
- TGI (IGROV1 ovarian): 0.0375 µM
- GI50 (MALME-3M melanoma): 3.19 µM
- TGI (MALME-3M melanoma): 8.82 µM
- GI50 (SF-539 CNS): 0.0482 µM
- TGI (SF-539 CNS): 1.64 µM
- GI50 (NCI-H522 lung): 0.0135 µM
- TGI (NCI-H522 lung): 0.098 µM
- GI50 (RPMI-8226 leukemia): 2.11 µM
- TGI (RPMI-8226 leukemia): 5.5 µM
- GI50 (EKVX NSCLC): 0.724 µM
- TGI (EKVX NSCLC): 15.6 µM
- GI50 (SF-268 CNS): 0.0303 µM
- TGI (SF-268 CNS): 0.128 µM
- GI50 (PC-3 prostate): 3.12 µM
- TGI (PC-3 prostate): 17.5 µM
- GI50 (MOLT-4 leukemia): 1 µM
- TGI (MOLT-4 leukemia): 3 µM
- GI50 (LOX IMVI melanoma): 0.0277 µM
- TGI (LOX IMVI melanoma): 1.25 µM
- GI50 (SK-MEL-28 melanoma): 5.62 µM
- TGI (SK-MEL-28 melanoma): 18.7 µM
- GI50 (SK-OV-3 ovarian): 0.0496 µM
- TGI (SK-OV-3 ovarian): 3.14 µM
- GI50 (SW-620 colon): 15.1 µM
- TGI (SW-620 colon): 28.6 µM
- GI50 (HL-60(TB) leukemia): 7.23 µM
- TGI (HL-60(TB) leukemia): 18.1 µM
- GI50 (NCI-H322M lung): 0.0381 µM
- TGI (NCI-H322M lung): 0.973 µM
- GI50 (U251 glioblastoma): 4.2 µM
- TGI (U251 glioblastoma): 17.8 µM
- GI50 (HCC-2998 colon): 5.08 µM
- TGI (HCC-2998 colon): 16.8 µM
- GI50 (OVCAR-5 ovarian): 0.041 µM
- TGI (OVCAR-5 ovarian): 6.27 µM
- GI50 (A549 NSCLC): 0.0275 µM
- TGI (A549 NSCLC): 12.6 µM
- GI50 (MDA-MB-231 breast): 0.0251 µM
- TGI (MDA-MB-231 breast): 1.04 µM
- GI50 (OVCAR-3 ovarian): 0.0151 µM
- TGI (OVCAR-3 ovarian): 0.419 µM
- GI50 (NCI/ADR-RES ovarian): 1.87 µM
- TGI (NCI/ADR-RES ovarian): 14.7 µM
- GI50 (CAKI-1 renal): 0.0277 µM
- TGI (CAKI-1 renal): 0.225 µM
- GI50 (SR leukemia): 5.44 µM
- TGI (SR leukemia): 8.78 µM
- GI50 (DU-145 prostate): 0.227 µM
- TGI (DU-145 prostate): 4.85 µM
- GI50 (HOP-62 NSCLC): 0.0648 µM
- TGI (HOP-62 NSCLC): 12.2 µM
- GI50 (HOP-92 NSCLC): 0.0372 µM
- TGI (HOP-92 NSCLC): 2.04 µM
- GI50 (KM12 colon): 7.3 µM
- TGI (KM12 colon): 19.8 µM
- GI50 (SNB-19 CNS): 8.69 µM
- TGI (SNB-19 CNS): 21.7 µM
- GI50 (SK-MEL-5 melanoma): 4.26 µM
- TGI (SK-MEL-5 melanoma): 15.1 µM
- GI50 (HCT-15 colon): 1.03 µM
- TGI (HCT-15 colon): 13.7 µM
- GI50 (HS 578T breast): 0.0129 µM
- TGI (HS 578T breast): 0.0494 µM
- GI50 (NCI-H226 lung): 0.0247 µM
- TGI (NCI-H226 lung): 2.64 µM
- GI50 (TK-10 renal): 0.0259 µM
- TGI (TK-10 renal): 0.164 µM
- GI50 ([…]-0 renal): 0.0357 µM
- TGI (786-0 renal): 2.5 µM
- GI50 (MCF7 breast): 10 µM
- TGI (MCF7 breast): 21.7 µM
- GI50 (MDA-MB-468 breast): 0.695 µM
- TGI (MDA-MB-468 breast): 4.51 µM

Source: PubChem BioAssay (NCI)
